Data as given in US20120101083A1, “S1P1 AGONISTS COMPRISING A BICYCLIC N-CONTAINING RING” (GLAXO GROUP LIMITED, priority 2009, published 2012).
Where a name gives a salt, the structure may show the parent alone. Each block holds one compound with its values, some of them ahead of it.

How the values were obtained:
[1] = target: T1, S1P1 receptor (S1P1 expressing RH7777 membranes) (Homo sapiens, UniProt P21453); experiment: S1P1 GTPγS assay; format: biochemical; conditions: tested in one of the above S1P1 assays (two GTPγS formats)
T1 construct: expressed in transfected cells; host or cells: RH7777 cells (membranes)
Summary of the method: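 Membranes from RH7777 cells expressing human S1P1 (1.5 μg/well) precoupled 30 min on ice to WGA SPA beads in 20 mM HEPES pH 7.4, 10 mM MgCl2, 100 mM NaCl, with 10 μM GDP and 90 μg/ml saponin. [35S]-GTPγS 0.5 nM final added with compound; SPA signal read immediately.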

[2] = target: T2, S1P1 (PathHunter CHO-K1 EDG1 β-Arrestin cell line) (Homo sapiens, UniProt P21453); experiment: S1P-1 β-Arrestin recruitment assay; format: cell-based; conditions: CHO-K1 EDG1 β-Arrestin cells, chemi-luminescence
T2 construct: host or cells: PathHunter CHO-K1 EDG1 β-Arrestin cell line
Procedure: S1P-1 β-Arrestin Recruitment Assay
β-Arrestin recruitment assays were carried out using the PathHunter CHO-K1 EDG1
β-Arrestin cell line (DiscoveRx Corporation) in a chemi-luminescence detection assay. This cell line stably expresses β-Arrestin 2 and S1P1 fused to complementing portions of β-galactosidase (‘EA’ and ‘pro-link’, respectively) which associate upon Arrestin recruitment to form functional β-galactosidase enzyme.
Cells were grown to 80% confluency in Growth Medium (F12 nutrient HAMS supplemented with 10% heat-inactivated USA FBS, 1% L-glutamax, 800 μg/ml Geneticin and 300 μg/ml Hygromycin). Cells were harvested from the flask using Enzyme Free Cell Dissociation Buffer (Gibco) and washed from flasks with Optimem solution (Gibco). Cells were then centrifuged at 1000 rpm for 2-3 min and resuspended in Assay Buffer (Prepared from Sigma kit H1387 supplemented with 20 ml/L HEPES, 4.7 ml/L NaHCO3, 0.1% pluronic acid F-68 solution, 0.1% BSA and adjusted to pH 7.4 using sodium hydroxide at 1×10^6 cells/ml. Cells were dispensed into assay plates containing compounds (100n1/well of a solution of test compound in 100% DMSO) at 1×10^4 cells/well and incubated at 37° C./5% CO2 for 90 min followed by 15 min at room temperature. 5 μl detection mix (1 part Galacton Star, 5 parts Emerald II, 19 parts Assay Buffer; DiscoveRx) were added per well and the plates incubated at room temperature for 60 min. Luminescence was quantified using a Viewlux plate reader.

T1 sequence (P21453 whole entry): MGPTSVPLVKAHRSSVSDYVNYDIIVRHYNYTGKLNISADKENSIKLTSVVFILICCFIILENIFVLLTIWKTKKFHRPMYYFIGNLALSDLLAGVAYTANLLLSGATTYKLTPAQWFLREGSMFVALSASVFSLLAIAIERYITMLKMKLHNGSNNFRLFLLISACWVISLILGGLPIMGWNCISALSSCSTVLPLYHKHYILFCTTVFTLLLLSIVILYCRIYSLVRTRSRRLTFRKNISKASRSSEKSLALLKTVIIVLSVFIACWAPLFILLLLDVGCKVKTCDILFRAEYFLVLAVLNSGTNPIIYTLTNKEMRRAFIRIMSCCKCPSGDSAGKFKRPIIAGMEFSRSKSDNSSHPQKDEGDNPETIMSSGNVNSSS
T2 sequence (P21453 whole entry): as above
T2 sequence (P32121 whole entry partner): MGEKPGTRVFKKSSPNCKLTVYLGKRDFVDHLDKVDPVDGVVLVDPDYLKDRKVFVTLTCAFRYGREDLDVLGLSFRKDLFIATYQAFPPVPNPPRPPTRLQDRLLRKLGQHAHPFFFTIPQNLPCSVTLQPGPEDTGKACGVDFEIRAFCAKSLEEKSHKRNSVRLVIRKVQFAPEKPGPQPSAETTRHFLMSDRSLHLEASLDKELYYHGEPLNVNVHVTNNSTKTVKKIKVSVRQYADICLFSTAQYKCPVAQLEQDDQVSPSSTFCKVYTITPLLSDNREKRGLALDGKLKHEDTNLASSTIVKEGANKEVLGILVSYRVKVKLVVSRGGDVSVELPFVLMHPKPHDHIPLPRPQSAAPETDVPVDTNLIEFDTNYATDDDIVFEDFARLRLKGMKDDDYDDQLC

Compound: N#Cc1cc(-c2nc(-c3ccc4c(c3)CCN(C(=O)CN)CC4)no2)ccc1OC(CF)CF [Example 54, 2-{[2-fluoro-1-(fluoromethyl)ethyl]oxy}-5-[3-(3-glycyl-2,3,4,5-tetrahydro-1H-3-benzazepin-7-yl)-1,2,4-oxadiazol-5-yl]benzonitrile]
- EC50 [1]: ≤ 100 nM
- EC50 [2]: ≤ 10 nM

Compound: CC(C)Oc1ccc(-c2nc(-c3ccc4c(c3)CCN(CC(=O)N3CCOCC3)CC4)no2)cc1C#N [Example 92, 2-[(1-methylethyl)oxy]-5-(3-{3-[2-(4-morpholinyl)-2-oxoethyl]-2,3,4,5-tetrahydro-1H-3-benzazepin-7-yl}-1,2,4-oxadiazol-5-yl)benzonitrile hydrochloride]
- EC50 [1]: ≤ 10 nM
- EC50 [2]: ≤ 100 nM

Compound: CNC(=O)CCCN1CCc2ccc(-c3noc(-c4ccc(OC(C)C)c(C#N)c4)n3)cc2CC1 [Example 24, 4-[7-(5-{3-Cyano-4-[(1-methylethyl)oxy]phenyl}-1,2,4-oxadiazol-3-yl)-1,2,4,5-tetrahydro-3H-3-benzazepin-3-yl]-N-methylbutanamide]
- EC50 [1]: ≤ 100 nM
- EC50 [2]: ≤ 10 nM

Compound: CNC(=O)CCCN1CCc2c(ccc(-c3noc(-c4ccc(OC(C)C)c(C#N)c4)n3)c2C)C1 [Example 5, 4-[6-(5-{3-Cyano-4-[(1-methylethyl)oxy]phenyl}-1,2,4-oxadiazol-3-yl)-5-methyl-3,4-dihydro-2(1H)-isoquinolinyl]-N-methylbutanamide]
- EC50 [1]: ≤ 100 nM
- EC50 [2]: ≤ 10 nM

Compound: CC(C)Oc1ccc(-c2nc(-c3ccc4c(c3)CCN(CC(=O)NCCCO)CC4)no2)cc1C#N [Example 157, 2-[7-(5-{3-cyano-4-[(1-methylethyl)oxy]phenyl}-1,2,4-oxadiazol-3-yl)-1,2,4,5-tetrahydro-3H-3-benzazepin-3-yl]-N-(3-hydroxypropyl)acetamide]
- EC50 [2]: ≤ 10 nM

Compound: Cc1c(-c2noc(-c3cnc(OC(C)C)c(C#N)c3)n2)ccc2c1CCN(CC(=O)N[C@@H](C)CO)C2 [Example 170, 2-[6-(5-{5-cyano-6-[(1-methylethyl)oxy]-3-pyridinyl}-1,2,4-oxadiazol-3-yl)-5-methyl-3,4-dihydro-2(1H)-isoquinolinyl]-N-[(1S)-2-hydroxy-1-methylethyl]acetamide hydrochloride]
- EC50 [2]: ≤ 10 nM

Compound: Cc1c(-c2noc(-c3cnc(OC(C)C)c(Cl)c3)n2)ccc2c1CCN(C(CO)CO)C2 [Example 144, 2-[6-(5-{5-chloro-6-[(1-methylethyl)oxy]-3-pyridinyl}-1,2,4-oxadiazol-3-yl)-5-methyl-3,4-dihydro-2(1H)-isoquinolinyl]-1,3-propanediol]
- EC50 [2]: ≤ 100 nM

Compound: CC(C)Oc1ccc(-c2nc(-c3ccc4c(c3)CCN(C[C@@H](O)C(=O)NCCO)CC4)no2)cc1C#N [Example 164, (2R)-3-[7-(5-{3-cyano-4-[(1-methylethyl)oxy]phenyl}-1,2,4-oxadiazol-3-yl)-1,2,4,5-tetrahydro-3H-3-benzazepin-3-yl]-2-hydroxy-N-(2-hydroxyethyl)propanamide hydrochloride]
- EC50 [2]: ≤ 10 nM

Compound: Cc1c(-c2noc(-c3ccc(OC(C)C)c(C#N)c3)n2)ccc2c1CCN(C(=O)CN[C@@H](C)CO)C2 [Example 130, 5-[3-(2-{N-[(1S)-2-hydroxy-1-methylethyl]glycyl}-5-methyl-1,2,3,4-tetrahydro-6-isoquinolinyl)-1,2,4-oxadiazol-5-yl]-2-[(1-methylethyl)oxy]benzonitrile]
- EC50 [2]: ≤ 10 nM

Compound: Cc1c(-c2noc(-c3ccc(OC(C)C)c(Cl)c3)n2)ccc2c1CCN(CC(=O)NC[C@H](O)CO)C2 [Example 192, 2-[6-(5-{3-chloro-4-[(1-methylethyl)oxy]phenyl}-1,2,4-oxadiazol-3-yl)-5-methyl-3,4-dihydro-2(1H)-isoquinolinyl]-N-[(2S)-2,3-dihydroxypropyl]acetamide hydrochloride]
- EC50 [2]: ≤ 10 nM

Compound: CC(C)Oc1ccc(-c2nc(-c3cccc4c3CCN(C(CO)CO)C4)no2)cc1C#N [Example 180, 5-(3-{2-[2-hydroxy-1-(hydroxymethyl)ethyl]-1,2,3,4-tetrahydro-5-isoquinolinyl}-1,2,4-oxadiazol-5-yl)-2-[(1-methylethyl)oxy]benzonitrile hydrochloride]
- EC50 [2]: ≤ 10 nM

Compound: Cc1c(-c2noc(-c3ccc(OC(C)C)c(C#N)c3)n2)ccc2c1CCN(C(=O)CNCCO)C2 [Example 131, formic acid-5-(3-{2-[N-(2-hydroxyethyl)glycyl]-5-methyl-1,2,3,4-tetrahydro-6-isoquinolinyl}-1,2,4-oxadiazol-5-yl)-2-[(1-methylethyl)oxy]benzonitrile (1:1)]
- EC50 [2]: ≤ 10 nM

Compound: Cc1c(-c2noc(-c3ccc(OC(C)C)c(Cl)c3)n2)ccc2c1CCN(CC(=O)NCCO)C2 [Example 136, 2-[6-(5-{3-chloro-4-[(1-methylethyl)oxy]phenyl}-1,2,4-oxadiazol-3-yl)-5-methyl-3,4-dihydro-2(1H)-isoquinolinyl]-N-(2-hydroxyethyl)acetamide hydrochloride]
- EC50 [2]: ≤ 10 nM

Compound: COCCN1CCc2c(cccc2-c2nnc(-c3ccc(OC(C)C)c(C#N)c3)s2)C1 [Example 37, 2-[(1-Methylethyl)oxy]-5-(5-{2-[2-(methyloxy)ethyl]-1,2,3,4-tetrahydro-5-isoquinolinyl}-1,3,4-thiadiazol-2-yl)benzonitrile]
- EC50 [2]: ≤ 100 nM

More lines, now with the values ahead:

- EC50 [1]: ≤ 100 nM
- EC50 [2]: ≤ 100 nM
Compound: N#Cc1cc(-c2nc(-c3ccc4c(c3)CCN(C[C@H](O)CO)CC4)no2)ccc1OCC(F)(F)F [Example 135, 5-(3-{3-[(2S)-2,3-dihydroxypropyl]-2,3,4,5-tetrahydro-1H-3-benzazepin-7-yl}-1,2,4-oxadiazol-5-yl)-2-[(2,2,2-trifluoroethyl)oxy]benzonitrile]

- EC50 [2]: ≤ 100 nM
Compound: CC(C)Oc1ccc(-c2nc(-c3ccc4c(c3)CCN(CCC(=O)N(C)C)CC4)no2)cc1C#N [Example 23, 3-[7-(5-{3-Cyano-4-[(1-methylethyl)oxy]phenyl}-1,2,4-oxadiazol-3-yl)-1,2,4,5-tetrahydro-3H-3-benzazepin-3-yl]-N,N-dimethylpropanamide]

- EC50 [2]: ≤ 100 nM
Compound: CC(C)Oc1ccc(-c2nc(-c3cccc4c3CCN(C(=O)CCN)C4)no2)cc1C#N [Example 88, 5-[3-(2-β-alanyl-1,2,3,4-tetrahydro-5-isoquinolinyl)-1,2,4-oxadiazol-5-yl]-2-[(1-methylethyl)oxy]benzonitrile hydrochloride]

- EC50 [2]: ≤ 10 nM
Compound: Cc1c(-c2noc(-c3ccc(OC(C)C)c(C#N)c3)n2)ccc2c1CCN(C(=O)CNC(CO)CO)C2 [Example 127, 5-[3-(2-{N-[2-hydroxy-1-(hydroxymethyl)ethyl]glycyl}-5-methyl-1,2,3,4-tetrahydro-6-isoquinolinyl)-1,2,4-oxadiazol-5-yl]-2-[(1-methylethyl)oxy]benzonitrile hydrochloride]

- EC50 [2]: ≤ 10 nM
Compound: CC(C)Oc1ccc(-c2nnc(-c3ccc4c(c3)CCN(C(=O)CNCCO)CC4)s2)cc1C#N [Example 200, 5-(5-{3-[N-(2-hydroxyethyl)glycyl]-2,3,4,5-tetrahydro-1H-3-benzazepin-7-yl}-1,3,4-thiadiazol-2-yl)-2-[(1-methylethyl)oxy]benzonitrile]

- EC50 [2]: ≤ 100 nM
Compound: CC(C)Nc1ncc(-c2nc(-c3ccc4c(c3)CCN(C(CO)CO)CC4)no2)cc1C#N [Example 108, 5-(3-{3-[2-hydroxy-1-(hydroxymethyl)ethyl]-2,3,4,5-tetrahydro-1H-3-benzazepin-7-yl}-1,2,4-oxadiazol-5-yl)-2-[(1-methylethyl)amino]-3-pyridinecarbonitrile hydrochloride]

- EC50 [2]: ≤ 10 nM
Compound: Cc1c(-c2noc(-c3ccc(OC(C)C)c(Cl)c3)n2)ccc2c1CCN(CC(=O)NC(CO)CO)C2 [Example 193, 2-[6-(5-{3-chloro-4-[(1-methylethyl)oxy]phenyl}-1,2,4-oxadiazol-3-yl)-5-methyl-3,4-dihydro-2(1H)-isoquinolinyl]-N-[2-hydroxy-1-(hydroxymethyl)ethyl]acetamide hydrochloride]

- EC50 [2]: ≤ 10 nM
Compound: N#Cc1cc(-c2nc(-c3ccc4c(c3)CCN(C(=O)CN)CC4)no2)ccc1OCC(F)(F)F [Example 191, 5-[3-(3-glycyl-2,3,4,5-tetrahydro-1H-3-benzazepin-7-yl)-1,2,4-oxadiazol-5-yl]-2-[(2,2,2-trifluoroethyl)oxy]benzonitrile hydrochloride]

- EC50 [2]: ≤ 100 nM
Compound: Cc1c(-c2nnc(-c3ccc(OC(C)C)c(Cl)c3)s2)ccc2c1CCN(C(CO)CO)C2 [Example 203, 2-[6-(5-{3-chloro-4-[(1-methylethyl)oxy]phenyl}-1,3,4-thiadiazol-2-yl)-5-methyl-3,4-dihydro-2(1H)-isoquinolinyl]-1,3-propanediol hydrochloride]

- EC50 [2]: ≤ 10 nM
Compound: CC(C)Oc1ccc(-c2nc(-c3cccc4c3CCN(C[C@@H](O)CO)C4)no2)cc1C#N [Example 178, 5-(3-{2-[(2R)-2,3-dihydroxypropyl]-1,2,3,4-tetrahydro-5-isoquinolinyl}-1,2,4-oxadiazol-5-yl)-2-[(1-methylethyl)oxy]benzonitrile hydrochloride]
